One may read the Emax as the maximal effect, on the per cent scale that the assay sets. What is called pEC50 is −log10 of the EC50, conventionally taken in molar units.

pEC50: −log10 of the molar value. Where two headings read alike, the source gives them in different places. Bounds are passed on as bounds.

Among the data in patent US20260200926A1, “TREM2 MODULATORS” (Muna Therapeutics ApS, priority 2022, published 2026) are Emax and EC50 values, retold here.

The test deals with T1, Human TREM2 (Homo sapiens, UniProt Q9NZC2).
T1 construct: expressed in transfected cells
T1 sequence (Q9NZC2 19-230): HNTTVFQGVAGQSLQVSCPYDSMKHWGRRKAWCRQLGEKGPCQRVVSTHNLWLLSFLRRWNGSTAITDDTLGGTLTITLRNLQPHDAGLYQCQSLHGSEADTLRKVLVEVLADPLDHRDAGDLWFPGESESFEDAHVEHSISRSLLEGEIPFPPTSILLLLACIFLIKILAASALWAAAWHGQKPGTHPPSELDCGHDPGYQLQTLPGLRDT
T1 sequence (O43914 22-113 partner): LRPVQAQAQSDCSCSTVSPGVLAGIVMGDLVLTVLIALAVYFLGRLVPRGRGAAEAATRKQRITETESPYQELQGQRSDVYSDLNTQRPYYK
In words: Human TREM2 activity: cellular phosphorylation of Syk (AlphaLISA SureFire Ultra p-SYK) in HEK293/DAP12+TREM2 stable cell line. In kind it is cell-based. The settings on record: for Emax: maximal response relative to reference agonist example 1B (remaining examples); for pEC50: phospho-Syk AlphaLISA signal, HEK293/DAP12+TREM2 cells, concentration giving 50% of maximal response, read-out: EC50. The text has this: Human TREM2, in vitro Measurement of Triggering Receptor Expressed on Myeloid Cells 2 activity using cellular phosphorylation of Spleen Tyrosine Kinase (“Syk”) Assay
HEK-293 cells were co-transfected with separate plasmids encoding TREM2 and DAP12 to generate a stable cell line. After antibiotic selection, functional clone pool analysis and two successive limiting dilutions, the final clone “HEK293/DAP12+TREM2” underwent a qPCR analysis and a pharmacological validation.
TREM2 signaling through DAP12 was monitored in the HEK293/DAP12+TREM2 stable cell line by measuring the phosphorylation levels of the Syk kinase using the commercially available AlphaLISA SureFire Ultra p-SYK (Tyr525/526) Assay Kit (PerkinElmer #ALSU-PSYK), based on the Perkin Elmer AlphaScreen/AlphaLISA technology.
Compounds are transferred to the test plate and tested in full dose response, 8 concentrations in quadruplicate data points. Compound serial dilutions were performed at Cybi-Felix instrument in 100% DMSO and the dose response curves were assembled in automated fashion in 384MPT at Hamilton STARlet instrument. All the stock solutions were prepared at 20 mM in 100% DMSO. For compounds testing, the starting concentration was 100 μM, dilution steps 1:6. […] Finally, a 384MPT reformatted for all compounds at 8 concentrations, quadruplicates, was used as “mother to child” process with a CyBi®-Well dispenser in which 1 μL of each compound was moved into a destination plate pre-filled with 65.6 μL of EMEM cell culture medium (BIOWHITTAKER_cat.BE12-125F), thus obtaining 3× concentrated compounds working solution. In columns 1-2 and 23-24 the control wells were added. In particular, dose response curves of a reference control agonist were included in column 1 and 24 as reference control agonist (Reference control agonists used include Human TREM2 polyclonal Antibody AF1828: R&D Systems; Human TREM2 monoclonal Antibody MAB1828: R&D Systems). The dose response curves were tested starting at 30 μM, dilution step 1:6. Both “source” compound plate and “destination” compound plate were barcoded and a relationship between the two plates was thus generated.
HEK293/DAP12+TREM2 cells were cultured in EMEM medium supplemented with IX Penicillin/Streptomycin (BIOWHITTAKER_cat.DE17-602E), ULTRAGLUTAMINE I 200 mM, 10% Fetal Bovine Serum plus antibiotics referred to as “HEK293 Culture Medium”. The day before the experiment, cells were detached by gentle wash with DPBS, followed by 5 min incubation at 37° C. with Trypsin solution. Cells were then diluted in HEK293 Culture Medium without antibiotics, counted and seeded into 384-well poly-D-Lysine coated microplates black/clear bottom (GREINER 781946) at a density of 10,000 cells/well in 25 μL/well by the use of a MATRIX WellMate dispenser. Plates were placed into a humidified cell culture incubator at 37° C. with 5% CO2 until the experimental day. 20-24 hours after seeding mature medium was removed and replaced with 10 μL/well of EMEM cell medium supplemented with 0.1% Pluronic F-68 non-ionic surfactant (Thermofisher, 24040032), referred to as “Assay Buffer”, using the CyBi®-Well instrument. Then 5 μL/well of Assay Buffer containing 3× concentrated test compounds or the reference control agonist (in 0.5% final DMSO concentration) were added to the cells with the CyBi®-Well instrument. Cell plates were incubated for 30 min into a humidified cell culture incubator at 37° C. with 5% CO2·, then the medium was removed by manually discard. 20 μL/well of lysis buffer were dispensed using the CyBi®-Well instrument and plates were incubated for 10 min at room temperature on a plate shaker (350 rpm). Then, 10 μL/well of lysate were transferred to the Alpha plates. The CyBi®-Well instrument was used to dispense 5 μL/well of AlphaLISA Acceptor Bead Solution in IX Immunoassay buffer (Perkin Elmer AL000F). Then the plates were sealed with Heat sealing foil, shaked for 2 minutes (350 rpm) and incubated for 1 hour at room temperature.
Background: Alpha assays give light when donor and acceptor beads are brought close together.

Take `Cc1nc2c(-c3ccc(Cl)cc3F)nc(N3CCOC(c4ncon4)C3)nc2c(=O)n1C` (stereo not shown) [Example 58, 6-(2-(1,2,4-oxadiazol-3-yl)morpholino)-8-(4-chloro-2-fluorophenyl)-2,3-dimethylpyrimido[5,4-d]pyrimidin-4(3H)-one]: the pEC50 is 6.00 to 7.00. Also, the Emax (HEK293, read-out: Emax) lay within 75 to 110%.
As to `Cc1cc([C@H]2CN(c3nc(-c4ccc(C(F)(F)F)cc4F)c4nc(C)n(C)c(=O)c4n3)CCO2)ccn1` (single isomer, unassigned) [Example 21B], the pEC50 was > 9.00. The Emax (HEK293, read-out: Emax) lay within 75 to 110%.
Regarding `Cc1cc([C@H]2CN(c3nc(-c4ccc(F)cc4F)c4nc(C(F)(F)F)n(C)c(=O)c4c3F)CCO2)ccn1` (single isomer, unassigned) [Example 174B], the pEC50 was 6.00 to 7.00. In addition, the Emax (HEK293, read-out: Emax) was < 75%.
In the case of `Cc1nc2c(-c3ccc(C(F)(F)F)nc3)nc([C@H]3CCO[C@@H](c4cnn(C5CC5)c4)C3)nc2c(=O)n1C` (single isomer, unassigned) [Example 98B], the pEC50 is < 6.00. The maximal response (Emax) (HEK293, read-out: Emax) is < 75%.
Consider `Cc1cc([C@@H]2CN(c3cc4c(=O)n(C)c(C)nc4c(-c4ccc(C(F)(F)F)cc4F)n3)CC(C)(C)O2)ccn1` (single isomer, unassigned) [Example 163A], for which the pEC50 is 6.00 to 7.00. Besides, the Emax (HEK293, read-out: Emax) was < 75%.
For the compound `Cc1nc2c(-c3ccc(F)cc3F)nc(N3C[C@@H](C)O[C@@H](c4cnn(C5CC5)c4)C3)nc2c(=O)n1C` (single isomer, unassigned) [Example 177B], the pEC50 was 8.00 to 9.00. Moreover, the maximum response (Emax) (HEK293, read-out: Emax) was in the range of 75 to 110%.
As to `Cc1nc2c(-c3ccc(Cl)cc3F)nc(N3C[C@H](c4cnn(C5CC5)c4)OC(C)(C)C3)nc2c(=O)n1C` (single isomer, unassigned) [Example 110B], the pEC50 is 7.00 to 8.00. In addition, where the note is “HEK293, read-out: Emax”, the Emax is < 75%.
`Cc1cc([C@@H]2CN(c3nc(-c4ccc(F)cc4F)c4nc(C)n(C)c(=O)c4n3)C[C@H](C)O2)ccn1` (single isomer, unassigned) [Example 175A]: the pEC50 is 8.00 to 9.00. Under “HEK293, read-out: Emax”, the maximal response (Emax) lay within 75 to 110%.
On the same counts, the results for `Cc1nc2c(-c3ccc(Cl)cc3F)nc(N3C[C@@H](c4cnn(C5CC5)c4)O[C@@H](C)C3)nc2c(=O)n1C` (single isomer, unassigned) [Example 178A] are 8.00 to 9.00 and 75 to 110%.
The matching figures for `Cc1cc([C@H]2CN(c3cc4c(=O)n(C)c(C)nc4c(-c4cc(F)c(F)cc4F)n3)CCO2)ccn1` (single isomer, unassigned) [Example 141B]: 7.00 to 8.00 and 75 to 110%.
On the same counts, the results for `Cc1nc2c(-c3ccc(C(F)F)nc3)nc(N3C[C@@H](C)O[C@@H](c4cnn(C5CC5)c4)C3)cc2c(=O)n1C` (single isomer, unassigned) [Example 194B] are 6.00 to 7.00 and < 75%.
For `Cc1cc([C@H]2CN(c3nc(-c4ccc(C(F)(F)F)nc4)c4nc(C)n(C)c(=O)c4n3)CCO2)ccn1` (single isomer, unassigned) [Example 22B], the pEC50 was 8.00 to 9.00. Moreover, the Emax (HEK293, read-out: Emax) lay within 75 to 110%.
As to `Cc1cc([C@@H]2CN(c3cc4c(=O)n(C)c(C)nc4c(-c4ccc(C(F)(F)F)cc4F)n3)CCO2)ccn1` (single isomer, unassigned) [Example 137A], the pEC50 was 8.00 to 9.00. Also, the maximal response (Emax) (HEK293, read-out: Emax) was 75 to 110%.
Consider `Cc1nc2c(-c3ccc(Cl)cc3F)nc(N3C[C@H](c4cnn(C)c4)OC4(CCC4)C3)cc2c(=O)n1C` (single isomer, unassigned) [Example 151B], for which the pEC50 is 6.00 to 7.00. Also, the Emax (HEK293, read-out: Emax) is < 75%.
As for `Cc1nc2c(nc(N3CCO[C@@H](c4cnn(C)c4)C3)nc2[C@H]2CC[C@H](C)CC2)c(=O)n1C` (single isomer, unassigned) [Example 71B], the Emax entry is “+ (<75%)” and the pEC50 was 7.00 to 8.00.
Regarding `Cc1nc2c(-c3ccc(Cl)cc3F)nc(N3CCO[C@H](c4cnn(C(F)(F)F)c4)C3)nc2c(=O)n1C` (single isomer, unassigned) [Example 107A], the pEC50 is 7.00 to 8.00. Moreover, where the note is “HEK293, read-out: Emax”, the Emax fell in the range of 75 to 110%.
Consider `Cc1nc2c(-c3ccc(C(F)(F)F)cc3F)nc([C@@H]3CCO[C@H](c4cnn(C)c4)C3)nc2c(=O)n1C` (single isomer, unassigned) [Example 65], for which the pEC50 is 7.00 to 8.00. The Emax (HEK293, read-out: Emax) fell in the range of 75 to 110%.
Regarding `Cc1cc([C@@H]2CN(c3cc4c(=O)n(C)c(C)nc4c(-c4ccc(F)cc4F)n3)CCO2)ccn1` (single isomer, unassigned) [Example 136A], the pEC50 was 8.00 to 9.00. In addition, the Emax (HEK293, read-out: Emax) was 75 to 110%.
Take `Cc1nc2c(-c3ccc(C(F)(F)F)nc3)nc(N3CCO[C@@H](c4cnn(C)c4)C3)cc2c(=O)n1C` (single isomer, unassigned) [Example 127A]: the pEC50 was 6.00 to 7.00. In addition, the maximum response (Emax) (HEK293, read-out: Emax) is < 75%.
For `Cc1cc([C@H]2CN(c3nc(-c4ccc(C(F)(F)F)cc4F)c4nc(C)n(C)c(=O)c4n3)C[C@@H](C)O2)ccn1` (single isomer, unassigned) [Example 179B], the pEC50 was > 9.00. Moreover, under “HEK293, read-out: Emax”, the Emax lay in the range of 75 to 110%.
For `Cc1nc2c(-c3cc(F)c(F)cc3F)nc(N3C[C@H](c4cnn(C)c4)OC4(CCC4)C3)cc2c(=O)n1C` (single isomer, unassigned) [Example 152B], the negative-log EC50 (pEC50) is < 6.00. Under “HEK293, read-out: Emax”, the Emax is < 75%.
Turning to `Cc1cc([C@H]2CN(c3cc4c(=O)n(C)c(C)nc4c(-c4ccc(C(F)F)nc4)n3)CC(F)(F)O2)ccn1` (single isomer, unassigned) [Example 181B], the pEC50 is 8.00 to 9.00. In addition, the Emax (HEK293, read-out: Emax) fell in the range of 75 to 110%.
For the compound `Cc1cc([C@H]2CN(c3cc4c(=O)n(C)c(C)nc4c(-c4ccc(Cl)cc4F)n3)CC3(CC3)O2)ccn1` (single isomer, unassigned) [Example 128B], the pEC50 was 6.00 to 7.00. For the same compound, the Emax (HEK293, read-out: Emax) lay in the range of 75 to 110%.
As to `Cc1nc2c(-c3ccc(C(F)(F)F)cc3F)nc(N3CCO[C@@H](c4cnn(C)c4)C3)cc2c(=O)n1C` (single isomer, unassigned) [Example 126A], the pEC50 is 8.00 to 9.00. Further, where the note is “HEK293, read-out: Emax”, the Emax was 75 to 110%.
The matching figures for `Cc1cc([C@H]2C[C@@H](c3cc4c(=O)n(C)c(C)nc4c(-c4ccc(C(F)(F)F)cc4F)n3)CCO2)ccn1` (single isomer, unassigned) [Example 168B]: 8.00 to 9.00 and 75 to 110%.
The matching figures for `Cc1nc2c(-c3ccc(Cl)cc3F)nc(N3C[C@H](c4cnn(C)n4)OC(C)(C)C3)cc2c(=O)n1C` (single isomer, unassigned) [Example 147B]: 6.00 to 7.00 and 75 to 110%.
As for `Cc1cc([C@@H]2CN(c3cc4c(=O)n(C)c(C)nc4c(-c4ccc(F)cc4F)n3)CC(C)(C)O2)ccn1` (single isomer, unassigned) [Example 159A], the negative logarithm of the EC50 (pEC50) was 8.00 to 9.00. Besides, under “HEK293, read-out: Emax”, the Emax lay within 75 to 110%.
With `Cc1nc2c(-c3ccc(Cl)cc3F)nc([C@@H]3C[C@H]3c3cnn(C)c3)cc2c(=O)n1C` (single isomer, unassigned) [Example 148B], the pEC50 was < 6.00. Also, the Emax (HEK293, read-out: Emax) was < 75%.
As to `Cc1nc2c(-c3ccc(C(F)(F)F)cc3F)cc([C@@H]3CCO[C@H](c4cnn(C5CC5)c4)C3)cc2c(=O)n1C` (single isomer, unassigned) [Example 118A], the negative-log EC50 (pEC50) was 7.00 to 8.00. Moreover, for the setting “HEK293, read-out: Emax”, the Emax lay within 75 to 110%.
